From patent US20180014546A1, “Broad Spectrum Bacteriocin for Control of Unwanted Bacteria” (priority 2013, published 2018)
“Also recorded” adds a separate entry of the source.

How the values were obtained:
[1] = tested on: LAB isolates from commercial ethanol plants (Lactobacillus, Lactococcus, Weissella, Leuconostoc, Pediococcus, Enterococcus, Streptococcus); experiment: Inhibitory activity spectrum, culture supernatant spotted on indicator bacterial lawns (LAB isolates); assay type: cell-based, lactic acid bacteria; conditions: multiple genera
Method: (§1) In the discovery of the unique broad spectrum bacteriocin of this invention, indigenous LAB were isolated and purified from the fermentation mash of the commercial ethanol fermentation plants. The identities of the isolates were determined to the species level based on their 16s rDNA sequences. The capability of the isolated LAB strains to produce antimicrobial compounds was identified. Culture supernatants of the strains to be tested were spotted onto individual indicator bacterial culture lawns, which were prepared using a variety of LAB strains of different genera. After incubation, growth inhibition of the indicator bacteria was seen as a clear zone at and around the spotting position. Any positive activity of bacterial growth inhibition from the tested culture supernatant was confirmed again in the same manner, and the inhibitory activity spectrum of the antimicrobial compound is determined. […]
(§2) The inhibitory activity spectrum of GP15cin against different strains was determined. The active concentration range and the minimum inhibition concentration of the bacteriocin are determined using different indicator strains. The activity levels of the bacteriocin present in the raw bacterial culture supernatants and/or in partially purified mixtures were also determined. […]

[2] = tested on: non-LAB isolates (strains of Staphylococcus, Enterobacter, Bacillus, Clostridium); experiment: Inhibitory activity spectrum, culture supernatant spotted on indicator bacterial lawns (non-LAB isolates); assay type: cell-based
Method: as §1, §2

[3] = Bacteriocin stability at different temperatures and pH values; assay type: physicochemical
Method: Either using crude, partially or completely purified form, the chemical characteristics of the bacteriocins can be determined. The determined characteristics include their sensitivities to different enzymes, stability at different temperatures and pH values, etc. Sensitivity of the bacteriocin to proteolytic and lipolytic enzymes, such as trypsin, pepsin, pronase, lipase, etc, was tested. The proteinaceus nature of GP15cin was confirmed. […] The same bacteriocin has optimal activity in the pH range of 4-10.

[4] = tested on: indigenous contaminating bacteria in ethanol fermentation mash; experiment: Reduction of indigenous contaminating bacterial level in fermentation mash from commercial ethanol plants; assay type: cell-based; conditions: crude form
Method: The inhibitory activity spectrum of GP15cin against different strains was determined. The active concentration range and the minimum inhibition concentration of the bacteriocin are determined using different indicator strains. The activity levels of the bacteriocin present in the raw bacterial culture supernatants and/or in partially purified mixtures were also determined. […] FIG. 2 to FIG. 11 show the effectiveness of GP15cin in reducing the total levels of indigenous bacteria presented in fermentation mash from different commercial ethanol plants. The exact identities of the indigenous bacteria population in different plants are unknown and are likely highly diverse.
GP15cin described herein were produced by a L. plantarum strain, which was isolated from the indigenous LAB populations present during commercial ethanol fermentation. GP15cin can act towards species and/or strains of similar indigenous LAB populations and thus can be used as an effective control for contaminating LAB. […] Either fermentor or mash cooler mash samples were collected from 6 different commercial ethanol plants on 13 different days from 2012 to 2014. Results of 15 independent tests are shown. […] It is likely that the effects on controlling contaminating bacteria and acids will be even more significant if a higher dose of GP5cin is used. […]

[5] = tested on: contaminating LAB; experiment: Lactic and acetic acid levels in laboratory-scale ethanol fermentation; assay type: cell-based
Source text: GP15cin described herein were produced by a L. plantarum strain, which was isolated from the indigenous LAB populations present during commercial ethanol fermentation. GP15cin can act towards species and/or strains of similar indigenous LAB populations and thus can be used as an effective control for contaminating LAB. […] Either fermentor or mash cooler mash samples were collected from 6 different commercial ethanol plants on 13 different days from 2012 to 2014. Results of 15 independent tests are shown. […] It is likely that the effects on controlling contaminating bacteria and acids will be even more significant if a higher dose of […] is used. The presented results highlight the feasibility of GP15cin application for control of unwanted bacteria in ethanol and other biofuel industries.

[6] = tested on: production host Lactobacillus plantarum GP15; experiment: Activity against own production host; assay type: cell-based
Source text: As noted above, GP-15cin may be applied alone or in combination with other bacteriocin and/or bacteriophage virulent for unwanted bacteria in the same system. Bacteriocin producing hosts are immune to the bacteriocins produced by themselves. GP-15cin is therefore not active against its own production host, GP15cin. […] Therefore, it is desirable to combine GP-15cin with a different bacteriocin in a cocktail that will kill the bacteria insensitive to GP15cin. Additionally, GP-15cin may be combined with other antimicrobial agents to broaden the scope of effectiveness against the range of unwanted bacteria that are targeted. For example, the combination of bacteriocin and bacteriophage (phage) ensures a broader inhibition spectrum and more efficient control of the bacteria contamination. Phage targeting these non-sensitive strains can be isolated, and be combined with the bacteriocin for a complete control of contaminating bacteria.

[7] = tested on: Lactobacillus fermentum strain 0315-25; experiment: Batch culture growth inhibition, bacteriocin and/or phage, growth monitored 24 h; assay type: cell-based
Method: Bacteriocin alone, bacteriophage alone, and bacteriocin combined with phage were tested against Lactobacillus in batch culture systems. To be specific, logarithmic growth phase cultures of Lactobacillus fermentum strain 0315-25 (OD600 being 0.1) were treated either with single agent at different doses, such as bacteriocin GP15cin alone at different doses (0.1%, 1%, and 10%, v/v), or a phage designated herein as LferInf alone at different MOIs (0.1, 1, and 10), or two agents combined together at different doses, such as 0.1% GP15cin plus LferInf at MOI of 0.1, 0.1% GP15cin plus phage LferInf at MOI of 1, 1% GP15cin plus LferInf at MOI of 0.1, and 1% GP15cin plus phage LferInf at MOI of 1. Culture without any treatment was served as control. LferInf is a bacteriophage isolated from wastewater and found to be effective against a broad host range of Lactobacillus and described in more detail below. The growth of bacteria was monitored for 24 h, and the treatment effects were compared.

With plantaricin W [GP15cin] the “killing activity against LAB isolates” value [1] was “broad range killing activity; also recorded: extremely broad killing spectrum”, the “killing activity against non-LAB isolates” value [2] was “showed killing activity” and the “pH range of optimal activity” value [3] was 4-10 pH. For the same substance, the “loss of activity (heat resistance)” value ([3]; after 2 hours at 120° C.) was “not a complete loss of activity”, the loss of activity ([3]; pH 12) was “complete loss of activity” and the reduction in activity ([3]; pH values of 1, 2, 3, and 11) was 50%. The reduction in activity ([3]; temperature of 120° C.) was 87.5%, the reduction in activity ([3]; temperatures of 65-100° C.) was 50% and the “time in which the reduction effect was seen” value [4] was ≥ 2 h. The “reduction of indigenous contaminating bacteria levels” value ([4]; mash samples from 6 plants, 15 independent tests) was “consistent reduction effects seen in all tests; also recorded: reduced indigenous contaminating bacteria levels in all mash samples”, the “lactic acid and acetic acid levels produced by contaminating LAB” value [5] was “significantly reduced” and the “activity against own production host” value [6] was “not active”. The “growth of L. fermentum” value ([7]; GP15cin alone 0.1% v/v) was “all treatment, except GP15cin used at 0.1%, suppressed the growth”, the “growth of L. fermentum” value ([7]; GP15cin alone 1% v/v) was “suppressed the growth” and the “growth of L. fermentum” value ([7]; GP15cin alone 10% v/v) was “suppressed the growth”.
